{"source": "ChEMBL document CHEMBL2074414", "about": "“Molecular and functional characterization of organic cation/carnitine transporter family in mice” (J Biol Chem, 2000)", "molecules": {"B1": {"name": "Organic cation/carnitine transporter 2 (Mus musculus) (protein)", "chain": "MRDYDEVTAFLGEWGPFQRLIFFLLSASIIPNGFNGMSIVFLAGTPEHRCLVPHTVNLSSAWRNHSIPLETKDGRQVPQKCRRYRLATIANFSELGLEPGRDVDLEQLEQESCLDGWEYDKDVFLSTIVTEWDLVCKDDWKAPLTTSLFFVGVLMGSFISGQLSDRFGRKNVLFLTMGMQTGFSFLQVFSVNFEMFTVLFVLVGMGQISNYVAAFVLGTEILSKSIRIIFATLGVCIFYAFGFMVLPLFAYFIRDWRMLLLALTVPGVLCGALWWFIPESPRWLISQGRIKEAEVIIRKAAKINGIVAPSTIFDPSELQDLNSTKPQLHHIYDLIRTRNIRVITIMSIILWLTISVGYFGLSLDTPNLHGDIYVNCFLLAAVEVPAYVLAWLLLQYLPRRYSISAALFLGGSVLLFMQLVPSELFYLSTALVMVGKFGITSAYSMVYVYTAELYPTVVRNMGVGVSSTASRLGSILSPYFVYLGAYDRFLPYILMGSLTILTAILTLFFPESFGVPLPDTIDQMLRVKGIKQWQIQSQTRMQKDGEESPTVLKSTAF"}, "B2": {"name": "Solute carrier family 22 member 21 (Mus musculus), Q9WTN6 (protein)", "chain": "MLDYDEVTAFLGEWGTFQRLIFFLLSASIIPNGFTGLSAVFLTAIPEHRCRIPDTVNLSSAWRNHSIPMETKDGPEVPQKCRRYRLATIANFSELGLEPGRDVDLEQLEQENCLDGWEYDKDIFLSTIVTEWDLVCKDDWKAPLTTSFFYVGVLLGSFISGQLSDRFGRKNILFLTMAMHTGFSFIQVFSVNFEMFTLLYTLVGMGHISNYVAAFVLGTEMLSKSVRIIFATLGVCIFFAFGFMVLPLFAYFIREWRRLLLAITLPGVLCGALWWFIPESPRWLISQGRIKEAEVIIRKAAKINGIVAPSTIFDPSETNKLQDDSSKKPQSHHIYDLVRTPNIRILTIMSIILWLTISVGYFGLSLDTPNLNGNIYVNCFLLAAVEVPAYVLAWLLLQHVSRRYSMAGSLFLGGSVLLLVQLVPSDLHYLSTTLVMVGKFGITSAYSMVYVYTAELYPTVVRNMGVGVSSTASRLGSILSPYFVYLGAYDRRLPYILMGSLTILTAIITLFFPESSGVSLPETIDEMQKVKKLKQRQSLSKKGSPKESKGNVSRTSRTSEPKGF"}, "B3": {"name": "Solute carrier family 22 member 4 (Mus musculus) (protein)", "chain": "MRDYDEVIAFLGEWGPFQRLIFFLLSASIIPNGFNGMSVVFLAGTPEHRCLVPDTVNLSSSWRNHSIPLETKDGRQVPQSCRRYRLATIANFSAMGLEPGQDVDLEQLEQESCLDGWEYDKDIFLSTIVTEWNLVCEDDWKTPLTTSLFFVGVLCGSFVSGQLSDRFGRKKVLFATMAVQTGFSFVQIFSTNWEMFTVLFAIVGMGQISNYVVAFILGTEILSKSVRIIFSTLGVCTFFAIGYMVLPLFAYFIRDWRMLLLALTLPGLFCVPLWWFIPESPRWLISQRRFAEAEQIIQKAAKMNSIVAPAGIFDPLELQELNSLKQQKVIILDLFRTRNIATITVMAVMLWMLTSVGYFALSLNVPNLHGDVYLNCFLSGLIEVPAYFTAWLLLRTLPRRYIIAGVLFWGGGVLLLIQVVPEDYNFVSIGLVMLGKFGITSAFSMLYVFTAELYPTLVRNMAVGITSMASRVGSIIAPYFVYLGAYNRLLPYILMGSLTVLIGIITLFFPESFGVTLPENLEQMQKVRGFRCGKKSTVSVDREESPKVLITAF"}}, "key": {"[1]": {"biological_target": "T1, Solute carrier family 22 member 4 (Mus musculus, UniProt Q9Z306)", "T1 sequence (Q9Z306 whole entry)": "B3 chain", "assay": "TP_TRANSPORTER: uptake in Octn1-HEK cells", "format": "functional, cell-based", "conditions": "human, hek293"}, "[2]": {"biological_target": "T2, Octn2 (Organic cation/carnitine transporter 2) (Mus musculus, UniProt Q9Z0E8)", "T2 sequence (Q9Z0E8 whole entry)": "B1 chain", "assay": "TP_TRANSPORTER: inhibition of carnitine transport by Palmitoyl-carnitine at 5uM in Octn2-HEK cells", "format": "functional, cell-based, HEK293", "parameters": "scale not given: the % may be the effect or the level left", "conditions": "human, probe carnitine, read-out: Activity"}, "[3]": {"biological_target": "T3, Solute carrier family 22 member 21 (Mus musculus) (UniProt Q9WTN6)", "T3 sequence (whole entry)": "B2 chain", "assay": "TP_TRANSPORTER: inhibition of carnitine in Octn3-HEK cells", "format": "functional, cell-based", "conditions": "HEK293"}, "[4]": {"biological_target": "T3, Solute carrier family 22 member 21 (Mus musculus)", "assay": "TP_TRANSPORTER: inhibition of carnitine transport by gamma-butyrobetaine at 5uM in Octn3-HEK cells", "format": "functional, cell-based", "parameters": "scale not given: the % may be the effect or the level left", "conditions": "HEK293"}, "[5]": {"biological_target": "T2, Octn2 (Organic cation/carnitine transporter 2)", "assay": "TP_TRANSPORTER: inhibition of carnitine uptake by gamma-butyrobetaine at 5uM in Octn2-HEK cells", "format": "functional, cell-based, HEK293", "parameters": "scale not given: the % may be the effect or the level left", "conditions": "human, probe carnitine, read-out: Activity"}, "[6]": {"biological_target": "T2, Octn2 (Organic cation/carnitine transporter 2)", "assay": "TP_TRANSPORTER: inhibition of carnitine uptake by Octanoyl-carnitine at 5uM in Octn2-HEK cells", "format": "functional, cell-based, HEK293", "parameters": "scale not given: the % may be the effect or the level left", "conditions": "human, probe carnitine, read-out: Activity"}, "[7]": {"biological_target": "T3, Solute carrier family 22 member 21 (Mus musculus)", "assay": "TP_TRANSPORTER: inhibition of carnitine uptake by Octanoyl-carnitine at 5uM in Octn3-HEK cells", "format": "functional, cell-based", "parameters": "scale not given: the % may be the effect or the level left", "conditions": "HEK293"}, "[8]": {"biological_target": "T2, Octn2 (Organic cation/carnitine transporter 2)", "assay": "in vitro", "conditions": "human, Octn2-HEK cells, probe carnitine"}, "[9]": {"biological_target": "T3, Solute carrier family 22 member 21 (Mus musculus)", "assay": "TP_TRANSPORTER: inhibition of carnitine uptake by Acetyl-L-carnitine at 5uM in Octn3-HEK cells", "format": "functional, cell-based", "parameters": "scale not given: the % may be the effect or the level left", "conditions": "HEK293"}, "[10]": {"biological_target": "T4, Organic cation/carnitine transporter 2 (Mus musculus, UniProt Q9Z0E8)", "T4 sequence (Q9Z0E8 whole entry)": "B1 chain", "assay": "TP_TRANSPORTER: inhibition of carnitine uptake by Acetyl-L-carnitine at 5uM in Octn2-HEK cells", "format": "functional, cell-based", "parameters": "scale not given: the % may be the effect or the level left", "conditions": "human, hek293, 5 µM"}, "[11]": {"biological_target": "T4, Organic cation/carnitine transporter 2", "assay": "TP_TRANSPORTER: inhibition of carnitine uptake by Glycine betaine at […] in Octn2-HEK cells", "format": "functional, cell-based", "parameters": "scale not given: the % may be the effect or the level left", "conditions": "human, hek293"}, "[12]": {"biological_target": "T3, Solute carrier family 22 member 21 (Mus musculus)", "assay": "TP_TRANSPORTER: inhibition of carnitine uptake by Glycine betaine at 500uM in Octn3-HEK cells", "format": "functional, cell-based", "parameters": "scale not given: the % may be the effect or the level left", "conditions": "HEK293"}, "[13]": {"biological_target": "T3, Solute carrier family 22 member 21 (Mus musculus)", "assay": "TP_TRANSPORTER: inhibition of carnitine transport by Butyryl-carnitine at 5uM in Octn3-HEK cells", "format": "functional, cell-based", "parameters": "scale not given: the % may be the effect or the level left", "conditions": "HEK293"}, "[14]": {"biological_target": "T4, Organic cation/carnitine transporter 2", "assay": "TP_TRANSPORTER: inhibition of carnitine uptake by Butyryl-carnitine at 5uM in Octn2-HEK cells", "format": "functional, cell-based", "parameters": "scale not given: the % may be the effect or the level left", "conditions": "human, hek293, 5 µM"}, "[15]": {"substrate": "CC[N+](CC)(CC)CC", "assay": "cells, lysate or membranes named"}, "[16]": {"substrate": "C[N+](C)(C)CC(O)CC(=O)[O-]", "assay": "TP_TRANSPORTER: uptake in Octn2-HEK cells", "format": "functional, cell-based, HEK293"}, "[17]": {"substrate": "C[N+](C)(C)CC(O)CC(=O)[O-]", "assay": "TP_TRANSPORTER: uptake in Octn3-HEK cells", "format": "functional, cell-based", "conditions": "HEK293"}}, "data": [{"molecule": "C[N+](C)(C)CC(O)CC(=O)[O-]", "note": "(stereo not drawn) [CARNITINE]", "values": [{"measurement": "Activity", "setting": "[1]", "value": "substrate []"}]}, {"molecule": "CCCCCCCCCCCCCCCC(=O)OC(CC(=O)[O-])C[N+](C)(C)C", "note": "(stereo not drawn) [Palmitoyl-carnitine]", "values": [{"measurement": "activity at 5 µM", "setting": "[2]", "value": 28, "unit": "%"}, {"measurement": "Activity", "setting": "[3]", "value": 54, "unit": "µM"}]}, {"molecule": "C[N+](C)(C)CCCC(=O)[O-]", "values": [{"measurement": "Activity", "setting": "[4]", "value": 11, "unit": "%"}, {"measurement": "activity at 5 µM", "setting": "[5]", "value": 77, "unit": "%"}]}, {"molecule": "CCCCCCCC(=O)OC(CC(=O)O)C[N+](C)(C)C", "note": "(stereo not drawn) [Octanoyl-carnitine]", "values": [{"measurement": "activity at 5 µM", "setting": "[6]", "value": 38, "unit": "%"}, {"measurement": "Activity", "setting": "[7]", "value": 15, "unit": "%"}]}, {"molecule": "C[N+](C)(C)CCO", "note": "[CHOLINE]", "values": [{"measurement": "activity at 500 µM", "setting": "[8]", "value": 75, "unit": "%"}]}, {"molecule": "CC(=O)O[C@H](CC(=O)[O-])C[N+](C)(C)C", "note": "[ACETYLCARNITINE]", "values": [{"measurement": "Activity", "setting": "[9]", "value": 21, "unit": "%"}, {"measurement": "Activity", "setting": "[10]", "value": 67, "unit": "%"}]}, {"molecule": "C[N+](C)(C)CC(=O)O", "note": "[BETAINE]", "values": [{"measurement": "Activity", "setting": "[11]", "value": 56, "unit": "%"}, {"measurement": "Activity", "setting": "[12]", "value": 84, "unit": "%"}]}, {"molecule": "CCCC(=O)OC(CC(=O)[O-])C[N+](C)(C)C", "note": "(stereo not drawn) [Butyryl-carnitine]", "values": [{"measurement": "Activity", "setting": "[13]", "value": 13, "unit": "%"}, {"measurement": "Activity", "setting": "[14]", "value": 66, "unit": "%"}]}, {"molecule": "B1", "values": [{"measurement": "Km", "setting": "[15]", "value": 216, "unit": "µM"}, {"measurement": "Km", "setting": "[16]", "value": 22, "unit": "µM"}]}, {"molecule": "B2", "values": [{"measurement": "Km", "setting": "[17]", "value": 3, "unit": "µM"}]}, {"molecule": "B3", "values": [{"measurement": "Km", "setting": "[15]", "value": 452, "unit": "µM"}]}]}
